Our source for the T/C values is PubChem BioAssay AID248 (DTP/NCI, 2004).

For this assay, the system named is L1210 leukemia ip in BDF1 mice, survival T/C. The assay is described as follows: NCI In Vivo Anticancer Drug Screen. Data for tumor model L1210 Leukemia (intraperitoneal) in B6D2F1 (BDF1) mice. Particulars: endpoint: mean survival time, higher = longer survival. In a few lines: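 Ratio derived from survival: compound-dosed mice over vehicle-dosed mice, all bearing a transplantable tumor.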

[1] abbreviates: dose: 50.0 mg/kg/injection, schedule: Q01DX009 (ip), vehicle: saline.
Setting [2] is: dose: 100.0 mg/kg/injection, schedule: Q01DX009 (ip), vehicle: saline.
The mark [3] stands for this setting: dose: 100.0 mg/kg/injection, schedule: Q04DX003 (ip), vehicle: saline.
Where [4] appears, read: dose: 200.0 mg/kg/injection, schedule: Q01DX009 (ip), vehicle: saline.
Where [5] appears, read: dose: 200.0 mg/kg/injection, schedule: Q04DX003 (ip), vehicle: saline.
Setting [6] is: dose: 100.0 mg/kg/injection, schedule: Q01DX009 (ip), vehicle: Klucel (hydroxypropylcellulose) (HPC).
The mark [7] stands for this setting: dose: 200.0 mg/kg/injection, schedule: Q01DX009 (ip), vehicle: Klucel (hydroxypropylcellulose) (HPC).
The mark [8] stands for this setting: dose: 100.0 mg/kg/injection, schedule: Q01DX001 (ip), vehicle: saline.
Where [9] appears, read: dose: 200.0 mg/kg/injection, schedule: Q01DX001 (ip), vehicle: saline.
[10] abbreviates: dose: 400.0 mg/kg/injection, schedule: Q01DX001 (ip), vehicle: saline.
The mark [11] stands for this setting: dose: 100.0 mg/kg/injection, schedule: Q04DX003 (ip), vehicle: Klucel (hydroxypropylcellulose) (HPC).
[12] abbreviates: dose: 200.0 mg/kg/injection, schedule: Q04DX003 (ip), vehicle: Klucel (hydroxypropylcellulose) (HPC).
[13] abbreviates: dose: 400.0 mg/kg/injection, schedule: Q04DX003 (ip), vehicle: Klucel (hydroxypropylcellulose) (HPC).
[14] abbreviates: dose: 100.0 mg/kg/injection, schedule: Q01DX001 (ip), vehicle: acetone.
[15] abbreviates: dose: 200.0 mg/kg/injection, schedule: Q01DX001 (ip), vehicle: acetone.
[16] abbreviates: dose: 25.0 mg/kg/injection, schedule: Q01DX009 (ip), vehicle: Klucel (hydroxypropylcellulose) (HPC).
[17] abbreviates: dose: 50.0 mg/kg/injection, schedule: Q01DX009 (ip), vehicle: Klucel (hydroxypropylcellulose) (HPC).
Where [18] appears, read: dose: 100.0 mg/kg/injection, schedule: Q04DX003 (ip), vehicle: saline with Tween-80.
The mark [19] stands for this setting: dose: 200.0 mg/kg/injection, schedule: Q04DX003 (ip), vehicle: saline with Tween-80.
Setting [20] is: dose: 400.0 mg/kg/injection, schedule: Q04DX003 (ip), vehicle: saline with Tween-80.

Molecules are shown by their SMILES. “And” between values parts separate entries of the source, which are not always exact repeats. Equal entries are not always repeated. Toxic doses and inconclusive results are not listed.

As for `COC(C)C(Br)C(=O)O` (stereo not given), the T/C was 98 % of control under setting [1]; 95 % of control under setting [2]; 88 % of control under setting [3]; 90 % of control under setting [4]; 90 % of control under setting [5].

For the molecule `CN(C)C(=O)Sc1ccc(Cl)cc1S(=O)(=O)F`, the T/C by setting is: under setting [6], 97 % of control; under setting [7], 100 % of control; (dose: 400.0 mg/kg/injection, schedule: Q01DX009 (ip), vehicle: Klucel (hydroxypropylcellulose) (HPC)) 89 % of control.

Turning to `CC(=O)SCC(CSC(C)=O)c1nncc2ccccc12`, the T/C under setting [8] was 95 % of control.

For the molecule `CCN(CC)CCCC(C)Nc1ncnc2ncc3c(c12)CCCC3` (stereo not given), the T/C is 102 % of control (dose: 100.0 mg/kg/injection, schedule: Q04DX002 (ip), vehicle: saline) and 98 % of control (dose: 200.0 mg/kg/injection, schedule: Q04DX002 (ip), vehicle: saline).

For the molecule `C=COC(=O)NCC(=O)O`, the T/C reads like this: under setting [8], 91 % of control; under setting [9], 97 % of control; under setting [10], 92 % of control.

As to `CC(=O)OC1C(C(N)=O)CC(C(=O)O)C1OC(C)=O` (stereo not given), the T/C by setting is: under setting [8], 112 % of control; under setting [9], 114 % of control; under setting [10], 106 % of control.

For the molecule `CC(=O)OC1(N=NC(C)(C)C)C(C)(C)C(=O)C1(C)C`, the T/C under setting [11] was 91 % of control, the T/C under setting [12] is 86 % of control and the T/C under setting [13] was 91 % of control.

Turning to `O=C(Sc1ccccc1)C(Cl)(Cl)Cl`, the T/C by setting is: (dose: 25.0 mg/kg/injection, schedule: Q01DX009 (ip), vehicle: saline) 103 % of control; under setting [1], 97 % of control; (dose: 50.0 mg/kg/injection, schedule: Q04DX003 (ip), vehicle: saline) 97 % of control; under setting [14], 101 % of control; under setting [2], 95 % of control; under setting [3], 94 % of control. Also, the T/C under setting [15] was 95 % of control.

As for `O=C1C=CC(=O)N1c1ccc([N+](=O)[O-])cc1[N+](=O)[O-]`, the T/C was 98 % of control (dose: 12.5 mg/kg/injection, schedule: Q01DX009 (ip), vehicle: Klucel (hydroxypropylcellulose) (HPC)); 103 % of control under setting [16]; 103 % of control under setting [17]; 105 % of control under setting [6].

In the case of `CCCC(Cl)C(=O)Nc1cccc(OC(=O)NC)c1` (stereo not given), the T/C reads like this: under setting [18], 95 % of control; under setting [19], 93 % of control; under setting [20], 102 % of control.

As for `O=C(CCCCC(=O)N=C(c1ccccc1)c1ccccc1)N=C(c1ccccc1)c1ccccc1`, the T/C runs as follows: (dose: 222.0 mg/kg/injection, schedule: Q01DX Z (ip), vehicle: methylcellulose (MC)) 93 % of control; (dose: 333.0 mg/kg/injection, schedule: Q01DX Z (ip), vehicle: methylcellulose (MC)) 98 % of control; (dose: 500.0 mg/kg/injection, schedule: Q01DX Z (ip), vehicle: methylcellulose (MC)) 97 % of control.

Regarding `Nc1nc(N)c2nc(CNc3ccc(C(=O)NC(CCCCC(=O)O)C(=O)O)cc3)cnc2n1` (stereo not given), for the setting “dose: 20.0 mg/kg/injection, schedule: Q01DX009 (ip), vehicle: sodium bicarbonate”, the T/C was 157 % of control.

As for `BrC1(C2(Br)N(c3ccccc3)CCN2c2ccccc2)N(c2ccccc2)CCN1c1ccccc1`, the T/C is, setting by setting: (dose: 7.5 mg/kg/injection, schedule: Q01DX001 (ip), vehicle: saline) 105 % of control; (dose: 7.5 mg/kg/injection, schedule: Q04DX003 (ip), vehicle: saline) 108 % of control; (dose: 15.0 mg/kg/injection, schedule: Q01DX001 (ip), vehicle: saline) 105 % of control; (dose: 15.0 mg/kg/injection, schedule: Q04DX003 (ip), vehicle: saline) 106 % of control; (dose: 30.0 mg/kg/injection, schedule: Q01DX001 (ip), vehicle: saline) 112 % of control; (dose: 30.0 mg/kg/injection, schedule: Q04DX003 (ip), vehicle: saline) 100 % of control.

`ICC12CC=CCC1(CI)CCCC2` (stereo not given): the T/C (dose: 150.0 mg/kg/injection, schedule: Q04DX002 (ip), vehicle: Klucel (hydroxypropylcellulose) (HPC)) is 105 % of control and the T/C (dose: 300.0 mg/kg/injection, schedule: Q04DX002 (ip), vehicle: Klucel (hydroxypropylcellulose) (HPC)) is 97 % of control.

For the molecule `CN1C2CCCC1CC(O)(c1ccccc1)C2` (stereo not given), the T/C runs as follows: (dose: 12.5 mg/kg/injection, schedule: Q01DX001 (ip), vehicle: Klucel (hydroxypropylcellulose) (HPC)) 96 % of control; (dose: 25.0 mg/kg/injection, schedule: Q01DX001 (ip), vehicle: Klucel (hydroxypropylcellulose) (HPC)) 99 % of control; (dose: 50.0 mg/kg/injection, schedule: Q01DX001 (ip), vehicle: Klucel (hydroxypropylcellulose) (HPC)) 102 % of control.

For the molecule `CN=C(C#N)c1ccc(OC)c(OC)c1`, the T/C is 102 % of control (dose: 50.0 mg/kg/injection, schedule: Q01DX001 (ip), vehicle: saline); 96 % of control under setting [8]; 102 % of control under setting [9]; 102 % of control under setting [10].

With `CC(C)(C)NC(=O)Nc1cccc(OC(=O)NC(C)(C)C)c1`, the T/C under setting [18] was 90 % of control, the T/C under setting [19] is 87 % of control and the T/C under setting [20] was 87 % of control.

As to `O=C(O)C(c1cc(Cl)co1)N1C(=O)c2ccccc2C1=O` (stereo not given), the T/C runs as follows: under setting [11], 103 % of control; under setting [12], 101 % of control; under setting [13], 103 % of control.

With `NC(=O)c1ccccn1`, the T/C by setting is: under setting [17], 98 % of control; (dose: 50.0 mg/kg/injection, schedule: Q04DX003 (ip), vehicle: Klucel (hydroxypropylcellulose) (HPC)) 100 % of control; under setting [6], 95 % of control; under setting [11], 102 % of control; under setting [7], 87 % of control; under setting [12], 101 % of control and 102 % of control.

On to `COc1cc([N+](=O)[O-])c(C(OC(C)=O)OC(C)=O)cc1Br`, for which the T/C was 98 % of control under setting [14]; 94 % of control under setting [2]; 105 % of control under setting [3]; 88 % of control under setting [15]; 86 % of control under setting [4]; 109 % of control under setting [5]. Besides, the T/C by setting is: (dose: 400.0 mg/kg/injection, schedule: Q01DX001 (ip), vehicle: acetone) 97 % of control; (dose: 400.0 mg/kg/injection, schedule: Q01DX009 (ip), vehicle: saline) 88 % of control; (dose: 400.0 mg/kg/injection, schedule: Q04DX003 (ip), vehicle: saline) 105 % of control.

As for `CCOC(=O)c1cnc(SC)nc1Nc1ccc(C)cc1`, the T/C is, setting by setting: under setting [18], 97 % of control; under setting [19], 91 % of control; under setting [20], 86 % of control.

With `O=C(OCCO)c1cc(OCCO)nc(Cl)n1`, the T/C is 100 % of control under setting [17], 100 % of control under setting [6] and 89 % of control under setting [7].

Regarding `CC(C)(C)OOC(=O)c1ccccc1`, the T/C is 96 % of control under setting [16]; 90 % of control (dose: 50.0 mg/kg/injection, schedule: Q01DX001 (ip), vehicle: other); 97 % of control under setting [17]; 97 % of control and 101 % of control (dose: 75.0 mg/kg/injection, schedule: Q01DX009 (ip), vehicle: Klucel (hydroxypropylcellulose) (HPC)); 100 % of control (dose: 100.0 mg/kg/injection, schedule: Q01DX001 (ip), vehicle: other); 107 % of control under setting [11]. Also, the T/C by setting is: (dose: 200.0 mg/kg/injection, schedule: Q01DX001 (ip), vehicle: other) 102 % of control; under setting [12], 115 % of control; (dose: 400.0 mg/kg/injection, schedule: Q01DX001 (ip), vehicle: other) 94 % of control; under setting [13], 96 % of control.
